# Tests used:
# Assay in all cases: relative viability (nuclei count vs DMSO), 5 days (fraction); higher = more cells survive
# [1] = compound: CC1=CC(=NN1)NC2=CC(=NC(=N2)/C=C/C3=CC=CC=C3)N4CCN(CC4)C
# Procedure, shortened: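 In 1536-well plates, lung cancer cell lines rested overnight at 37 °C before five library-drug doses (not always all listed), √10 apart, were pinned onto vehicle-anchored plates. Nuclei were counted with MetaXpress from 4× Hoechst images taken after 5 days without medium change. Viability compares treated-well with vehicle-well nuclei as a median over plates, and plates needed control CV below 25% plus at least one doubling to pass.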
# Bortezomib + Trametinib = compound: CC(C)C[C@H](NC(=O)[C@H](Cc1ccccc1)NC(=O)c1cnccn1)B(O)O [Bortezomib] + CC(=O)Nc1cccc(-n2c(=O)n(C3CC3)c(=O)c3c(Nc4ccc(I)cc4F)n(C)c(=O)c(C)c32)c1 [Trametinib] (partner 0.02 µM)
# Procedure, shortened: (§1)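 Relative viability equals treated-well nuclei counts divided by vehicle-well nuclei counts. Counts came from 4× images of lung cancer cell lines grown in 1536-well plates for 5 days after pin-tool dosing on the day after seeding. Dosing used one drug alone or a fixed anchor-drug dose plus five library-drug doses (not always all listed) in √10 steps, and values are medians of duplicate plates.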
# Bortezomib + Olaparib = compound: CC(C)C[C@H](NC(=O)[C@H](Cc1ccccc1)NC(=O)c1cnccn1)B(O)O [Bortezomib] + O=C(c1cc(Cc2n[nH]c(=O)c3ccccc23)ccc1F)N1CCN(C(=O)C2CC2)CC1 [Olaparib] (partner 8 µM)
# Procedure, shortened: as §1
# [2] = compound: CC1=CC(=NN1)NC2=CC(=NC(=N2)/C=C/C3=CC=CC=C3)N4CCN(CC4)C + CCNC(=O)c1noc(-c2cc(C(C)C)c(O)cc2O)c1-c1ccc(CN2CCOCC2)cc1 [Luminespib] (partner 0.01 µM)
# Procedure, shortened: as §1
Cell Line,relative viability ([1]; 0.08 µM),relative viability ([1]; 0.253 µM),relative viability ([1]; 0.8 µM),relative viability ([1]; 2.53 µM),relative viability ([1]; 8 µM),relative viability (Bortezomib + Trametinib; first compound 0.0002 µM),relative viability (Bortezomib + Trametinib; first compound 0.000632 µM),relative viability (Bortezomib + Trametinib; first compound 0.002 µM),relative viability (Bortezomib + Trametinib; first compound 0.006325 µM),relative viability (Bortezomib + Trametinib; first compound 0.02 µM),relative viability (Bortezomib + Olaparib; first compound 0.0002 µM),relative viability (Bortezomib + Olaparib; first compound 0.000632 µM),relative viability (Bortezomib + Olaparib; first compound 0.002 µM),relative viability (Bortezomib + Olaparib; first compound 0.006325 µM),relative viability (Bortezomib + Olaparib; first compound 0.02 µM),relative viability ([2]; first compound 0.08 µM),relative viability ([2]; first compound 0.253 µM),relative viability ([2]; first compound 0.8 µM),relative viability ([2]; first compound 2.53 µM),relative viability ([2]; first compound 8 µM)
NCI-H322M,0.951,0.969,0.847,0.413,0.281,0.547,0.455,0.47,0.486,0.411,0.755,0.704,0.825,0.586,0.452,0.8,1.06,0.639,0.326,0.246
NCI-H358,0.847,0.92,0.787,0.203,0.11,0.12,0.121,0.133,0.094,0.0906,0.773,0.541,0.46,0.0684,0.076,0.35,0.303,0.261,0.206,0.0878
NCI-H441,1.01,1.01,0.931,0.249,0.143,0.428,0.482,0.153,0.131,0.127,0.446,0.601,0.165,0.11,0.102,0.471,0.466,0.409,0.31,0.142
NCI-H460,1.01,1.03,1.01,0.597,0.0321,0.126,0.157,0.202,0.0768,0.0189,0.355,0.422,0.392,0.0694,0.0397,0.0265,0.0399,0.0277,0.0233,0.0124
NCI-H520,0.975,1.04,0.871,0.261,0.126,0.667,0.741,0.451,0.141,0.128,0.333,0.334,0.218,0.117,0.116,0.25,0.269,0.186,0.195,0.242
NCI-H522,0.917,0.89,0.962,0.554,0.444,0.753,0.821,0.796,0.387,0.331,0.62,0.618,0.744,0.347,0.313,0.957,0.995,1.15,0.845,0.507
NCI-H596,1,0.998,0.879,0.614,0.256,0.835,0.773,0.568,0.208,0.168,0.723,0.709,0.445,0.186,0.187,1.04,0.927,0.777,0.402,0.2
NCI-H647,0.868,1.05,0.935,0.14,0.056,0.471,0.404,0.542,0.0211,0.0513,0.518,0.374,0.148,0.0277,0.0271,0.308,0.267,0.104,0.172,0.0506
NCI-H661,0.986,0.958,1.03,0.708,0.356,0.526,0.493,0.62,0.364,0.207,0.745,0.69,0.78,0.376,0.213,0.907,–,0.919,0.55,0.321
NCI-H727,0.835,0.688,0.924,0.441,0.374,0.367,0.43,0.363,0.413,0.266,0.673,0.968,0.681,0.803,0.176,0.467,–,0.264,0.252,0.208
NCI-H838,0.963,1.03,0.846,0.214,0.133,0.479,0.677,0.549,0.106,0.0935,0.739,0.789,0.792,0.124,0.0906,0.31,0.26,0.242,0.25,0.118
NCI-H1355,0.96,0.965,0.955,0.647,0.159,0.432,0.468,0.457,0.216,0.118,0.733,0.725,0.666,0.118,0.107,0.744,0.644,0.682,0.47,0.129
NCI-H1395,0.916,1.04,0.882,0.431,0.279,1.14,0.939,0.708,0.315,0.31,0.474,0.45,0.361,0.336,0.328,0.782,0.687,0.699,0.401,0.293
NCI-H1437,1.02,1.06,1.03,0.757,0.346,0.537,0.584,0.551,0.178,0.226,0.586,0.627,0.553,0.199,0.154,1.11,1.13,1.13,0.996,0.53
NCI-H1650,0.86,1.05,0.972,0.185,0.101,0.627,0.572,0.128,0.132,0.129,0.607,0.757,0.165,0.12,0.157,0.19,0.184,0.206,0.203,0.183
